PMC3039689, “Identification of Small Molecule Lead Compounds for Visceral Leishmaniasis Using a Novel Ex Vivo Splenic Explant Model System” (PLoS Neglected Tropical Diseases, 2011)
Where a name gives a salt, the structure may show the parent alone. Read-outs that look alike come from different tables or passages of the source.

Legend:
[1] = Cell toxicity (CC50) in the HepG2 cell line, CellTiter-Glo; assay type: cell-based, human; conditions: human
Description: After 24 hours of culture at 37°C the number of viable cells was determined by quantification of the ATP present in the cell using the CellTiter-Glo luminescent Cell Viability Assay (Promega).

[2] = tested on: luciferase-transfected Leishmania donovani; test: Anti-leishmanial efficacy (EC50) in the ex vivo splenic explant model; assay type: cell-based
Description: To establish the plate assay for drug screening, the spleens from 2 infected hamsters were aseptically removed and placed in a Petri dish containing 5 mL of Collagenase D (Roche) at 2 mg/mL of buffer (10 mM Hepes pH 7.4, 150 mM NaCl, 5 mM KCl, 1 mM MgCl2, 1.8 mM CaCl2). The spleen was infiltrated by injection with approximately 2 mL of Collagenase solution, the tissue was cut into small pieces using sharp scissors, and incubated for 20 minutes at 37°C. The cell suspension and remaining tissue fragments were gently passed through a 100 µm cell strainer (B–D) to obtain a single cell suspension, which was washed twice by centrifugation (500 g for 7 min at 4°C) and re-suspended in culture medium composed of DMEM (Gibco), 5% FBS, 1 mM Sodium pyruvate (Gibco), 1X MEM amino acids solution (Sigma), 0.02% v/v/EDTA, 10 mM HEPES buffer (Cellgro) and 100 IU/mL Penicillin/100 […] Streptomycin solution (Cellgro).
The anti-leishmanial efficacy of the compounds was determined using the splenic explant model in a 96-well plate format. […] Because variation in the parasite burden between different explant cultures was expected, the concentration of cells used in each experiment was adjusted to give approximately 100 counts by luminometry (equivalent to ∼240,000 parasites). The number of surviving parasites was determined by luminometry as described above.

[3] = HepG2 cells, HepG2 cell line, 24 h, ATP luminescence, compound from screened library, read-out: HepG2 CC50 Mean
[4] = Leishmania donovani, 48 h, ex vivo splenic explant, 48 h, luminometry, at least two experiments, compound from screened library, read-out: Ex vivo model EC50 Mean
[5] = HepG2 cell line, 24 h, ATP luminescence, compound from screened library, read-out: HepG2 CC50 Mean
[6] = Leishmania donovani, ex vivo splenic explant, 48 h, luminometry, at least two experiments, compound from screened library, read-out: Ex vivo model EC50 Mean
[7] = Leishmania donovani, 50% reduction in parasite counts in the ex vivo model, read-out: EC50 Mean (Table S2)
[8] = 50% reduction in parasite counts in the ex vivo model, read-out: EC50 Mean (Table S2)

Molecule	CC50 at 24 h [1, 3]	EC50 [2, 4]	EC50 [2, 6]	further results
Clc1ccc2c(NCCNC3CCCCC3)ccnc2c1 [N1-(7-chloro-4-quinolinyl)-N2-cyclohexyl-1,2-ethanediamine]	46.2 µM	3.9 µM	–	–
CC(C)[C@@H]1NC(=O)[C@H](C)OC(=O)[C@@H](C(C)C)NC(=O)[C@@H](C(C)C)OC(=O)[C@H](C(C)C)NC(=O)[C@H](C)OC(=O)[C@@H](C(C)C)NC(=O)[C@@H](C(C)C)OC(=O)[C@H](C(C)C)NC(=O)[C@H](C)OC(=O)[C@@H](C(C)C)NC(=O)[C@@H](C(C)C)OC1=O [Valinomycin]	–	–	0.02 µM	CC50 at 24 h [1, 5]: 10.7 µM
CN(C)CCCN1CCC2(CCC(C(C)(C)C)CC2)CC1 [3-(9-tert-butyl-3-azaspiro[5.5]undec-3-yl)-N,N-dimethyl-1-propanamine]	61.8 µM	6.1 µM	–	–
N=C1C=CC(=C(c2ccc(N)cc2)c2ccc(N)cc2)C=C1 [Pararosaniline Pamoate]	–	–	2.7 µM	CC50 at 24 h [1]: 37.1 µM
C[C@]12C(=O)C=CCC1=CC[C@@H]1[C@@H]2CC[C@@]2(O)C(=O)O[C@@]3(C)[C@H]4C[C@]5(C)[C@@H](CO[C@@]16O[C@]23[C@H]5C6=O)C(=O)O4 [Physalin B]	–	–	8.6 µM	CC50 at 24 h [1, 5]: 50.7 µM; EC50 [2, 7]: 8.59 µM
OC1(c2ccccc2)c2ccccc2NC2=NCCN21 (centres unmarked) [5-phenyl-3,10-dihydro-2H-imidazo[2,1-b]quinazolin-5-ol]	107 µM	12 µM	–	–
CN(C)CCCN1c2ccccc2Sc2ccc(Cl)cc21 [Chlorpromazine]	–	–	–	CC50 at 24 h [1]: 96.1 µM; EC50 [2, 7]: 15.1 µM
COc1cc(NCCC2CCCCN2)c2ncccc2c1 (centres unmarked) [6-methoxy-N-(2-(2-piperidinyl)ethyl)-8-quinolinamine]	–	–	5.1 µM	CC50 at 24 h [1]: 108 µM
CC(NCCN(C)C)C1CC[C@H]2[C@@H]3CCc4cc(O)ccc4[C@H]3CC[C@]12C (some centres unmarked) [17-(1-((2-(dimethylamino)ethyl)amino)ethyl)estra-1,3,5(10)-trien-3-ol]	–	6.2 µM	–	CC50 at 24 h [1]: 51.6 µM
COc1ccc2cc1Oc1ccc(cc1)C[C@H]1c3cc(c(OC)cc3CCN1C)Oc1c(OC)c(OC)cc3c1[C@H](C2)N(C)CC3 [Tetrandrine]	–	–	5.6 µM	CC50 at 24 h [1]: 31.4 µM
Cc1c2ccncc2c(C)c2c1[nH]c1ccccc12 [Ellipticine]	–	2.4 µM	–	CC50 [1]: 30.7 µM
Neomycin sulfate	–	–	–	EC50 [2, 8]: 6.72 µM; Activity in the ex vivo system (screen or EC50 determination) ([2]; transgenic L. donovani, ex vivo system): identified as a compound with activity
Oc1c(I)cc(Cl)c2cccnc12 [Clioquinol]	60 µM	–	11.3 µM	–
Clc1ccc2c(NC3CCC(N4CCCCC4)CC3)ccnc2c1 (centres unmarked) [7-chloro-N-(4-(1-piperidinyl)cyclohexyl)-4-quinolinamine]	67.4 µM	6.3 µM	–	–
C=C1C(=O)O[C@H]2[C@H]1CC/C(C)=C/CC[C@@]1(C)O[C@@H]21 [Parthenolide]	81.1 µM	13.3 µM	–	EC50 [2, 7]: 13.3 µM
CC[C@@H](C(=O)O)[C@@H]1O[C@@H]([C@@H](C)[C@H](O)[C@H](C)C(=O)[C@H](CC)[C@H]2O[C@]3(C=C[C@@H](O)[C@]4(CC[C@@](C)([C@H]5CC[C@](O)(CC)[C@H](C)O5)O4)O3)[C@H](C)C[C@@H]2C)[C@@H](C)C[C@@H]1C [Narasin]	–	13.3 µM	–	CC50 at 24 h [1]: 73 µM; EC50 [2, 7]: 13.3 µM
[H]/N=C(\N/C(=N/[H])NCCCCCCNC(=N)NC(=N)Nc1ccc(Cl)cc1)Nc1ccc(Cl)cc1 [Chlorhexidine]	60.5 µM	–	10.3 µM	–
O=C1C=C2C=C[C@@H]3C[C@@]2(O1)[C@H]1CCCCN31 [Securinine]	–	–	6.2 µM	CC50 [1, 5]: 47.7 µM
CN(C)CCCNc1c2c(nc3ccc(Cl)cc13)CCCC2 [N-(7-chloro-1,2,3,4-tetrahydroacridin-9-yl)-N',N'-dimethyl-propane-1,3-diamine]	–	–	6.4 µM	CC50 [1, 5]: 58.8 µM
CC(C)=CCNc1ncnc2nc[nH]c12 [N6-Isopentenyladenine]	–	–	20 µM	CC50 [1]: 225 µM
CN(C)CCCNc1cc(O)c2c(c1O)C(=O)c1ccccc1C2=O [2-((3-(dimethylamino)propyl)amino)-1,4-dihydroxyanthra-9,10-quinone]	–	–	6.7 µM	CC50 [1, 5]: 75.1 µM

Molecule	CC50 at 24 h [1, 3]	EC50 [2, 4]	EC50 [2, 6]	further results
CC[C@@]1(O)C[C@H](O[C@H]2C[C@H](N(C)C)[C@H](O)[C@H](C)O2)c2c(cc3c(c2O)C(=O)c2c(O)cccc2C3=O)[C@H]1C(=O)OC [Aklavine Hydrochloride]	–	–	0.7 µM	CC50 [1, 5]: 14 µM
COc1cc2ccccc2c2cc([N+](=O)[O-])oc12 [Naphtho(2,1-b)furan, 4-methoxy-2-nitro-]	–	6.8 µM	–	CC50 at 24 h [1]: 64.3 µM
Monensin Sodium	–	–	–	EC50 [2, 8]: 2.44 µM; EC50 ([2]; ex vivo splenic explant, 48 h, luminometry, at least two experiments, compound from screened library, read-out: Ex vivo model EC50 Mean): 2.4 µM
C[C@]12CC[C@H]3[C@@H](CC=C4C[C@@H](O)CC[C@@]43C)[C@@H]1CC[C@@H]2N(CCO)CCO [17beta-[Bis(2-hydroxyethyl)amino]androst-5-en-3beta-ol]	88.5 µM	7.5 µM	–	–
C=C1C(=O)O[C@H]2C[C@@H]1C(OC(C)=O)C/C(C)=C/CC/C(C)=C/CC[C@@]2(C)O (some centres unmarked) [Crassin Acetate]	41.1 µM	7.7 µM	–	–
CN[C@H]1CC[C@@H](c2ccc(Cl)c(Cl)c2)c2ccccc21 [Sertraline Hydrochloride]	–	–	–	CC50 at 24 h [1]: 82.5 µM
CO[C@@H]1C[C@@H](C[C@H]2CC[C@H](C)[C@H]([C@@H](C)C(=O)O)O2)O[C@]2(O[C@](C)([C@H]3CC[C@@](C)([C@@H]4O[C@@H]([C@H]5O[C@@](O)(CO)[C@H](C)C[C@@H]5C)C[C@@H]4C)O3)C[C@H]2C)[C@@H]1C [Nigericin, monosodium salt]	–	3.1 µM	–	CC50 at 24 h [1]: 34.3 µM; EC50 [2, 7]: 3.13 µM
CNCCC=C1c2ccccc2CCc2ccccc21 [Nortriptyline Hydrochloride]	–	7.8 µM	–	CC50 [1]: 52.6 µM
CN(C)CCCN1c2ccccc2Sc2ccc3ccccc3c21 [3-(12H-benzo[a]phenothiazin-12-yl)-N,N-dimethyl-1-propanamine]	–	–	11.5 µM	CC50 [1, 5]: 66.6 µM
C[C@@H]1CC[C@@]2(OC1)O[C@H]1[C@@H](O)[C@H]3[C@@H]4CC[C@H]5C[C@@H](O[C@@H]6O[C@H](CO)[C@H](O[C@@H]7O[C@H](CO)[C@@H](O)[C@H](O[C@@H]8OC[C@@H](O)[C@H](O)[C@H]8O)[C@H]7O[C@@H]7O[C@H](CO)[C@H](O)[C@H](O[C@@H]8O[C@H](CO)[C@@H](O)[C@H](O)[C@H]8O)[C@H]7O)[C@H](O)[C@H]6O)[C@H](O)C[C@]5(C)[C@H]4CC[C@]3(C)[C@H]1[C@@H]2C [Digitonin]	–	8.2 µM	–	CC50 [1, 5]: 42.4 µM
CN(C)CCCN1c2ccc(O)cc2Sc2ccc(Cl)cc21 [7-Hydroxychlorpromazine]	–	–	11 µM	CC50 [1, 5]: 60.1 µM
CC(C)(C)NCCC(O)c1cc(C(F)(F)F)nc2c(C(F)(F)F)cccc12 (centres unmarked) [1-(2,8-bis(trifluoromethyl)-4-quinolinyl)-3-(tert-butylamino)-1-propanol]	44.2 µM	7.9 µM	–	–
COc1cc(O)c(C(=O)/C=C/c2ccc(O)c(OC)c2)c(OC)c1 [2',4-dihydroxy-3,4',6'-trimethoxychalcone]	106 µM	14.6 µM	–	–
CSc1ccc2c(c1)c(CCN)c(C)n2Cc1ccccc1Cl [2-[1-[(2-chlorophenyl)methyl]-2-methyl-5-methylsulfanyl-indol-3-yl]ethanamine]	–	–	9.4 µM	CC50 [1, 5]: 71.8 µM
COc1ccc(-c2cc(=O)c3cc(OC)ccc3o2)cc1 [6,4'-dimethoxyflavone]	95 µM	17.9 µM	–	–
CN(C)CCCNc1c2c(=O)n(C)c(=O)nc-2n(C)c2ccccc12 [Pyrimido[4,5-b]quinoline-2,4(3H,10H)-dione, 5-[[3-(dimethylamino)propyl]amino]-3,10-dimethyl-, monohydrochloride]	49.5 µM	6.5 µM	–	–
NCCCCNCCCN [Spermidine Trihydrochloride]	132 µM	20 µM	–	–
CNCCCC12CCC(c3ccccc31)c1ccccc12 [Maprotiline Hydrochloride]	–	–	–	CC50 at 24 h [1]: 57.9 µM
Oc1ccc(Cl)c2cccnc12 [Cloxyquin]	94.8 µM	–	–	–
C[C@@H]1[C@H](O)[C@@H](C)/C=C/C=C/C=C/C=C/C=C/C=C/C=C/[C@H](O[C@@H]2O[C@H](C)[C@@H](O)[C@H](N)[C@@H]2O)C[C@@H]2O[C@](O)(C[C@@H](O)C[C@@H](O)[C@H](O)CC[C@@H](O)C[C@@H](O)CC(=O)O[C@H]1C)C[C@H](O)[C@H]2C(=O)O [amphotericin B deoxycholate]	–	–	–	EC50 ([2]; Leishmania donovani, ex vivo model, freshly solubilized compound from commercial source, read-out: EC50): 0.24 ± 0.02 µM
Oc1c(Cl)cc(Cl)c(Cl)c1Cc1c(O)c(Cl)cc(Cl)c1Cl [Hexachlorophene]	–	–	–	EC50 ([2]; Leishmania donovani, 48 h, read-out: Ex vivo model EC50 Mean): 13.6 µM
